What was measured:
Type in all cases: in vivo
[1] = system: chickweed (Stellaria media); assay: Test C postemergence
Excerpt: (§1) Seeds or nutlets of plant species selected from bermudagrass (Cynodon dactylon), Surinam grass (Brachiaria decumbens), cocklebur (Xanthium strumarium), corn (Zea mays), crabgrass (Digitaria sanguinalis), woolly cupgrass (Eriochloa villosa), giant foxtail (Setaria faberii), goosegrass (Eleusine indica), johnsongrass (Sorghum halepense), kochia (Kochia scoparia), lambsquarters (Chenopodium album), morningglory (Ipomoea coccinea), eastern black nightshade (Solanum ptycanthum), yellow nutsedge (Cyperus esculentus), pigweed (Amaranthus retroflexus), common ragweed (Ambrosia elatior), soybean (Glycine max), common (oilseed) sunflower (Helianthus annuus), and velvetleaf (Abutilon theophrasti) were planted and treated preemergence with test chemicals formulated in a non-phytotoxic solvent mixture which included a surfactant.
(§2) At the same time, plants selected from these crop and weed species and also winter barley (Hordeum vulgare), blackgrass (Alopecurus myosuroides), canarygrass (Phalaris minor), chickweed (Stellaria media), downy brome (Bromus tectorum), green foxtail (Setaria viridis), Italian ryegrass (Lolium multiflorum), wheat (Triticum aestivum), wild oat (Avena fatua) and windgrass (Apera spica-venti) were treated with postemergence applications of some of the test chemicals formulated in the same manner. Plants ranged in height from 2 to 18 cm (1- to 4-leaf stage) for postemergence treatments. Plant species in the flooded paddy test consisted of rice (Oryza sativa), umbrella sedge (Cyperus difformis), duck salad (Heteranthera limosa) and barnyardgrass (Echinochloa crus-galli) grown to the 2-leaf stage for testing. Treated plants and controls were maintained in a greenhouse for 12 to 14 days, after which time all species were compared to controls and visually evaluated. Plant response ratings, summarized in Table C, are based on a scale of 0 to 100 where 0 is no effect and 100 is complete control. A dash (-) response means no test result.

[2] = system: goosegrass (Eleusine indica); assay: Test C pre/postemergence
Excerpt: as §1, §2

[3] = system: lambsquarters (Chenopodium album); assay: Test C pre/postemergence
Excerpt: as §1, §2

[4] = system: soybean (Glycine max); assay: Test C pre/postemergence
Excerpt: as §1, §2

[5] = system: corn (Zea mays); assay: Test C pre/postemergence
Excerpt: as §1, §2

[6] = Postemergence, 62 g ai/ha, scale 0 to 100 (0 no effect, 100 complete control)
[7] = Postemergence, 125 g ai/ha, scale 0 to 100 (0 no effect, 100 complete control)
[8] = Postemergence, 250 g ai/ha, scale 0 to 100
[9] = Postemergence, 500 g ai/ha, scale 0 to 100
[10] = Preemergence, 62 g ai/ha, scale 0 to 100, 0 no effect, 100 complete control
[11] = Preemergence, 125 g ai/ha, scale 0 to 100
[12] = Preemergence, 250 g ai/ha, scale 0 to 100
[13] = Preemergence, 500 g ai/ha, scale 0 to 100

Compound: CN(C)N=Cc1nc(C2CC2)nc(N)c1Br [Compound 50]
- Chickweed plant response rating ([1]; 62 g ai/ha, scale 0 to 100 (0 no effect, 100 complete control)): 0
- Chickweed plant response rating ([1]; 125 g ai/ha, scale 0 to 100 (0 no effect, 100 complete control)): 0
- Plant response rating, Chickweed ([1]; 500 g ai/ha, scale 0 to 100): 20
- Goosegrass plant response rating [2, 6]: 0
- Goosegrass plant response rating [2, 7]: 0
- Plant response rating, Goosegrass [2, 8]: 0
- Plant response rating, Goosegrass [2, 9]: 0
- Plant response rating, Goosegrass [2, 10]: 0
- Plant response rating, Goosegrass [2, 11]: 0
- Plant response rating, Goosegrass [2, 12]: 0
- Plant response rating, Goosegrass [2, 13]: 0
- Lambsquarters plant response rating [3, 6]: 70
- Lambsquarters plant response rating [3, 7]: 75
- Plant response rating, Lambsquarters [3, 8]: 80
- Plant response rating, Lambsquarters [3, 9]: 85
- Plant response rating, Lambsquarters [3, 10]: 95
- Plant response rating, Lambsquarters [3, 11]: 100
- Plant response rating, Lambsquarters [3, 12]: 100
- Plant response rating, Lambsquarters [3, 13]: 100
- Soybean plant response rating [4, 6]: 95
- Soybean plant response rating [4, 7]: 95
- Plant response rating, Soybean [4, 8]: 100
- Plant response rating, Soybean [4, 9]: 100
- Plant response rating, Soybean [4, 10]: 0
- Plant response rating, Soybean [4, 11]: 60
- Plant response rating, Soybean [4, 12]: 75
- Plant response rating, Soybean [4, 13]: 90
- Corn plant response rating [5, 6]: 0
- Corn plant response rating [5, 7]: 0
- Plant response rating, Corn [5, 8]: 60
- Plant response rating, Corn [5, 9]: 65
- Plant response rating, Corn [5, 10]: 10
- Plant response rating, Corn [5, 11]: 10
- Plant response rating, Corn [5, 12]: 20
- Plant response rating, Corn [5, 13]: 45

Compound: COC(=O)c1nc(C2CC2)nc(N)c1I [Compound 7]
- pest or weed control at 62 g/ha ([1]; Stellaria media, post-emergence, 62 g ai/ha, scale 0 to 100 (0 no effect, 100 complete control), read-out: Chickweed plant response rating): 0%
- pest or weed control at 125 g/ha ([1]; Stellaria media, post-emergence, 125 g ai/ha, scale 0 to 100, read-out: Plant response rating, Chickweed): 0%
- pest or weed control at 250 g/ha ([1]; Stellaria media, post-emergence, 250 g ai/ha, scale 0 to 100, read-out: Plant response rating, Chickweed): 0%
- pest or weed control at 500 g/ha ([1]; Stellaria media, post-emergence, 500 g ai/ha, scale 0 to 100, read-out: Plant response rating, Chickweed): 0%
- pest or weed control at 62 g/ha ([2]; Eleusine indica, post-emergence, Postemergence, 62 g ai/ha, scale 0 to 100 (0 no effect, 100 complete control), read-out: Goosegrass plant response rating): 0%
- pest or weed control at 125 g/ha ([2]; Eleusine indica, post-emergence, Postemergence, 125 g ai/ha, scale 0 to 100 (0 no effect, 100 complete control), read-out: Goosegrass plant response rating): 0%
- pest or weed control at 250 g/ha ([2]; Eleusine indica, post-emergence, Postemergence, 250 g ai/ha, scale 0 to 100, read-out: Plant response rating, Goosegrass): 0%
- pest or weed control at 500 g/ha ([2]; Eleusine indica, post-emergence, Postemergence, 500 g ai/ha, scale 0 to 100, read-out: Plant response rating, Goosegrass): 0%
- pest or weed control at 62 g/ha ([3]; Chenopodium album, post-emergence, Postemergence, 62 g ai/ha, scale 0 to 100 (0 no effect, 100 complete control), read-out: Lambsquarters plant response rating): 50%
- pest or weed control at 125 g/ha ([3]; Chenopodium album, post-emergence, Postemergence, 125 g ai/ha, scale 0 to 100 (0 no effect, 100 complete control), read-out: Lambsquarters plant response rating): 60%
- pest or weed control at 250 g/ha ([3]; Chenopodium album, post-emergence, Postemergence, 250 g ai/ha, scale 0 to 100, read-out: Plant response rating, Lambsquarters): 70%
- pest or weed control at 500 g/ha ([3]; Chenopodium album, post-emergence, Postemergence, 500 g ai/ha, scale 0 to 100, read-out: Plant response rating, Lambsquarters): 80%
- plant injury at 62 g/ha ([4]; Glycine max, post-emergence, Postemergence, 62 g ai/ha, scale 0 to 100 (0 no effect, 100 complete control), read-out: Soybean plant response rating): 25%
- plant injury at 125 g/ha ([4]; Glycine max, post-emergence, Postemergence, 125 g ai/ha, scale 0 to 100 (0 no effect, 100 complete control), read-out: Soybean plant response rating): 25%
- plant injury at 250 g/ha ([4]; Glycine max, post-emergence, Postemergence, 250 g ai/ha, scale 0 to 100, read-out: Plant response rating, Soybean): 35%
- plant injury at 500 g/ha ([4]; Glycine max, post-emergence, Postemergence, 500 g ai/ha, scale 0 to 100, read-out: Plant response rating, Soybean): 60%
- Corn plant response rating (crop injury, 0 = no effect, 100 = complete kill) at 62 g/ha ([5]; Zea mays, post-emergence, Postemergence, 62 g ai/ha, scale 0 to 100 (0 no effect, 100 complete control), read-out: Corn plant response rating): 0%
- Corn plant response rating (crop injury, 0 = no effect, 100 = complete kill) at 125 g/ha ([5]; Zea mays, post-emergence, Postemergence, 125 g ai/ha, scale 0 to 100 (0 no effect, 100 complete control), read-out: Corn plant response rating): 0%
- Corn plant response rating (crop injury, 0 = no effect, 100 = complete kill) at 250 g/ha ([5]; Zea mays, post-emergence, Postemergence, 250 g ai/ha, scale 0 to 100): 0%
- Corn plant response rating (crop injury, 0 = no effect, 100 = complete kill) at 500 g/ha ([5]; Zea mays, post-emergence, Postemergence, 500 g ai/ha, scale 0 to 100): 0%

Reference: US8802597B2, “Herbicidal pyrimidines” (E I du Pont de Nemours and Company, priority 2003, dated 2014)
